# Test results: patent US20110184188A1, “Insecticidal Benzenedicarboxamide Derivative” (priority 2008, published 2011)
# Assay: logP(acid) by reverse phase (C18) chromatography at pH 2.3
# Format: physicochemical
# Details: reverse phase (C18) chromatography at pH 2.3
row,Structure (SMILES),logP (acid)
1,CSC[C@H](C)NC(=O)c1c(Cl)cccc1C(=O)Nc1ccc(Cn2cc(C(F)(F)C(F)(F)F)c(C(F)(F)C(F)(F)F)n2)nc1C [13-50],4.27
2,Cc1nc(Cn2nc(C(F)(F)C(F)(F)F)cc2C(F)(F)F)ccc1NC(=O)c1cccc(Cl)c1C(=O)N[C@@H](C)C[S+](C)[O-] (stereo partly drawn) [13-70],2.86
3,Cc1nc(Cn2cc(C(F)(F)C(F)(F)F)c(C(F)(F)C(F)(F)F)n2)ccc1NC(=O)c1cccc(Cl)c1C(=O)N[C@@H](C)CS(C)(=O)=O [13-110],logP (acid) 3.46
4,CSC[C@H](C)NC(=O)c1c(Br)cccc1C(=O)Nc1ccc(Cn2cc(C(F)(F)C(F)(F)F)c(C(F)(F)C(F)(F)F)n2)nc1C [13-134],logP (acid) 4.35
5,CSC[C@H](C)NC(=O)c1c(Br)cccc1C(=O)Nc1ccc(Cn2nc(C(F)(F)C(F)(F)F)cc2C(F)(F)F)nc1C [13-135],logP (acid) 4.30
6,Cc1nc(Cn2nc(C(F)(F)C(F)(F)C(F)(F)F)cc2C(F)(F)F)ccc1NC(=O)c1cccc(Br)c1C(=O)N[C@@H](C)C[S+](C)[O-] (stereo partly drawn) [13-136],logP (acid) 3.08
7,Cc1nc(Cn2cc(C(F)(F)C(F)(F)F)c(C(F)(F)C(F)(F)F)n2)ccc1NC(=O)c1cccc(Br)c1C(=O)N[C@@H](C)C[S+](C)[O-] (stereo partly drawn) [13-138],logP (acid) 3.03
8,Cc1nc(Cn2nc(C(F)(F)C(F)(F)C(F)(F)F)cc2C(F)(F)F)ccc1NC(=O)c1cccc(Br)c1C(=O)N[C@@H](C)CS(C)(=O)=O [13-139],logP (acid) 3.56
9,Cc1nc(Cn2cc(C(F)(F)C(F)(F)F)c(C(F)(F)C(F)(F)F)n2)ccc1NC(=O)c1cccc(Br)c1C(=O)N[C@@H](C)CS(C)(=O)=O [13-141],logP (acid) 3.52
10,CSC[C@H](C)NC(=O)c1c(I)cccc1C(=O)Nc1ccc(Cn2cc(C(F)(F)C(F)(F)F)c(C(F)(F)C(F)(F)F)n2)nc1C [13-156],logP (acid) 4.46
11,CSC[C@H](C)NC(=O)c1c(I)cccc1C(=O)Nc1ccc(Cn2nc(C(F)(F)C(F)(F)F)cc2C(F)(F)F)nc1C [13-157],logP (acid) 4.39
12,CSC[C@H](C)NC(=O)c1c(Cl)cccc1C(=O)Nc1cnc(Cn2nc(C(F)(F)F)cc2C(F)(F)F)cc1C [13-175],logP (acid) 3.52
13,CSC[C@H](C)NC(=O)c1c(Br)cccc1C(=O)Nc1cnc(Cn2nc(C(F)(F)F)cc2C(F)(F)F)cc1C [13-178],logP (acid) 3.59
14,CSC[C@H](C)NC(=O)c1c(I)cccc1C(=O)Nc1cnc(Cn2nc(C(F)(F)F)cc2C(F)(F)F)cc1C [13-181],logP (acid) 3.67
15,Cc1nc(Cn2nc(C(F)(F)C(F)(F)F)cc2C(F)(F)F)ccc1NC(=O)c1cccc(Cl)c1C(=O)N[C@@H](C)CS(C)(=O)=O [13-186],logP (acid) 3.12
16,Cc1nc(Cn2nc(C(F)(F)C(F)(F)F)cc2C(F)(F)F)ccc1NC(=O)c1cccc(Br)c1C(=O)N[C@@H](C)CS(C)(=O)=O [13-187],logP (acid) 3.19
17,Cc1nc(Cn2nc(C(F)(F)C(F)(F)F)cc2C(F)(F)F)ccc1NC(=O)c1cccc(I)c1C(=O)N[C@@H](C)CS(C)(=O)=O [13-189],logP (acid) 3.27

# The remaining lines, values ahead:
row,logP (acid),Structure (SMILES)
1,logP (acid) 2.6,COc1ccc(Br)c(C(=O)Nc2ccc(Cn3nc(C(F)(F)F)cc3C(F)(F)F)nc2C)c1C(=O)N[C@@H](C)C[S+](C)[O-] (stereo partly drawn) [11-17]
2,logP (acid) 4.02,COc1ccc(Br)c(C(=O)Nc2ccc(Cn3nc(C(F)(F)C(F)(F)F)cc3C(F)(F)F)nc2C)c1C(=O)N[C@@H](C)CSC [11-19]
3,logP (acid) 2.90,COc1ccc(Br)c(C(=O)Nc2ccc(Cn3nc(C(F)(F)C(F)(F)F)cc3C(F)(F)F)nc2C)c1C(=O)N[C@@H](C)C[S+](C)[O-] (stereo partly drawn) [11-20]
4,logP (acid) 3.88,CSC[C@H](C)NC(=O)c1c(Cl)ccc(Cl)c1C(=O)Nc1ccc(Cn2nc(C(F)(F)F)cc2C(F)(F)F)cc1C [11-21]
5,logP (acid) 3.40,Cc1cc(Cn2nc(C(F)(F)F)cc2C(F)(F)F)ccc1NC(=O)c1c(Cl)ccc(Cl)c1C(=O)N[C@@H](C)CS(C)(=O)=O [11-23]
6,logP (acid) 4.25,CSC[C@H](C)NC(=O)c1c(Cl)ccc(Cl)c1C(=O)Nc1ccc(Cn2nc(C(F)(F)F)nc2C(F)(F)F)cc1C [11-26]
7,logP (acid) 4.51,CSC[C@H](C)NC(=O)c1c(Cl)ccc(Cl)c1C(=O)Nc1ccc(Cn2nc(C(F)(F)C(F)(F)F)nc2C(F)(F)F)cc1C [11-27]
8,logP (acid) 3.50,Cc1cc(Cn2nc(C(F)(F)C(F)(F)F)nc2C(F)(F)F)ccc1NC(=O)c1c(Cl)ccc(Cl)c1C(=O)N[C@@H](C)CS(C)(=O)=O [11-29]
9,logP (acid) 4.28,CSC[C@H](C)NC(=O)c1c(Cl)ccc(Br)c1C(=O)Nc1ccc(Cn2nc(C(F)(F)C(F)(F)F)nc2C(F)(F)F)cc1C [11-30]
10,logP (acid) 3.47,Cc1cc(Cn2nc(C(F)(F)C(F)(F)F)nc2C(F)(F)F)ccc1NC(=O)c1c(Br)ccc(Cl)c1C(=O)N[C@@H](C)CS(C)(=O)=O [11-32]
11,logP (acid) 4.14,COc1ccc(Br)c(C(=O)Nc2ccc(Cn3nc(C(F)(F)C(F)(F)F)nc3C(F)(F)F)cc2C)c1C(=O)N[C@@H](C)CSC [11-38]
12,logP (acid) 3.69,CNC(=O)c1cc(Cl)cc(Cl)c1C(=O)Nc1ccc(Cn2nc(C(F)(F)F)cc2C(F)(F)F)cc1C [12-1]
13,logP (acid) 3.39,CNC(=O)c1cc(Cl)cc(Cl)c1C(=O)Nc1ccc(Cn2nc(C(F)(F)F)nc2C(F)(F)F)cc1C [12-4]
14,3.21,CSC[C@H](C)NC(=O)c1c(Cl)cccc1C(=O)Nc1ccc(Cn2nc(C(F)F)c(Cl)c2C(F)F)nc1C [13-27]
15,3.20,CSC[C@H](C)NC(=O)c1c(Cl)cccc1C(=O)Nc1ccc(Cn2nc(C(F)F)c(Br)c2C(F)F)nc1C [13-28]
16,2.48,Cc1nc(Cn2nc(C(F)F)c(Cl)c2C(F)F)ccc1NC(=O)c1cccc(Cl)c1C(=O)N[C@@H](C)CS(C)(=O)=O [13-76]
17,logP (acid) 3.28,CSC[C@H](C)NC(=O)c1c(Br)cccc1C(=O)Nc1ccc(Cn2nc(C(F)F)c(Cl)c2C(F)F)nc1C [13-126]
18,logP (acid) 3.34,CSC[C@H](C)NC(=O)c1c(I)cccc1C(=O)Nc1ccc(Cn2nc(C(F)F)c(Cl)c2C(F)F)nc1C [13-145]

# Same assay, conditions: reverse phase (C18) chromatography, pH 2.3
row,Structure (SMILES),logP (acid)
1,Cc1cc(Cn2nc(C(F)(F)F)cc2C(F)(F)F)ccc1NC(=O)c1cccc(Cl)c1C(=O)NC(C)CN(C)C (stereo not drawn) [13-191],logP (acid) 1.81
2,Cc1cc(Cn2nc(C(F)(F)F)cc2C(F)(F)F)ccc1NC(=O)c1c(Cl)cccc1C(=O)NCC#N [13-198],logP (acid) 3.32

# Continued, values first:
row,logP (acid),Structure (SMILES)
1,logP (acid) 2.31,CSC[C@H](C)NC(=O)c1c(Cl)cccc1C(=O)Nc1ccc(Cn2nc(C(F)(F)F)cc2N)cc1C [13-200]
2,logP (acid) 3.43,CCOC(=O)c1cn(Cc2ccc(NC(=O)c3cccc(Cl)c3C(=O)N[C@@H](C)CSC)c(C)c2)nc1C(F)(F)F [13-202]
3,logP (acid) 4.46,CSC[C@H](C)NC(=O)c1c(Cl)cccc1C(=O)Nc1ccc(Cn2cc(C(=O)C(F)(F)C(F)(F)F)c(C(F)(F)C(F)(F)F)n2)cc1C [13-205]
4,logP (acid) 2.56,CSC[C@H](C)NC(=O)c1c(Cl)cccc1C(=O)Nc1ccc(Cn2cc(C(=O)N(C)C)c(C(F)(F)F)n2)cc1C [13-207]
5,logP (acid) 3.25,CSC[C@H](C)NC(=O)c1c(Cl)cccc1C(=O)Nc1ccc(Cn2cc(C(=O)NC(C)C(F)(F)F)c(C(F)(F)F)n2)cc1C (stereo partly drawn) [13-208]
